Test results: US20210100872A1, “Pharmacological Formulation Comprising Cyclo (HIS-PRO) As Effective Ingredient For Preventing Or Treating Diabetes Mellitus” (Novmetapharma Co., Ltd., priority 2017, published 2021)

How the values were obtained:
Format in all cases: in vivo, human
[1] = Body mass index (BMI), 12-week clinical trial; conditions: capsule once a day, From Week 0 to Week 12
Procedure: (§1) We conducted a clinical trial designed as randomized, placebo-controlled, double-blind, and two-way crossover on drug interaction in patients with type 2 diabetes mellitus. The clinical trial was conducted for 149 patients over a total of 16 weeks, in which the screening period was 2 weeks, the treatment period was 12 weeks, and the period of the evaluation of safety and follow-up was 2 weeks.
(§2) In the screening stage, 64 subjects were selected from 149 participants, and the subjects who met the selection criteria were fasted for 2 hours before and after breakfast each day and subjected to a 2-week evaluation process of measuring and recording blood glucose levels. In the treatment stage, capsules containing placebo or CHP with different doses were randomly administered to 64 selected subjects once a day for 12 consecutive weeks.
(§3) In the above experiment, a capsule containing CHP (cyclo-hispro) with a different dose or a placebo corresponding thereto was used, and each subject received a two-week dose (18 capsules =14 +4) at one visit and was instructed to take 1 capsule before bedtime every day. In this case, the anti-diabetic drugs and other prescribed drugs currently being used were continuously taken. Each subject was assigned at the same rate as follows and administered with a placebo or a compound with a different dose, respectively. • Administration Group A: 3 mg of CHP+23 mg of zinc—16 subjects • Administration Group B: 9 mg of CHP+23 mg of zinc—16 subjects • Administration Group C: 15 mg of CHP+23 mg of zinc—16 subjects • Administration Group D: placebo (control)—16 subjects
The present inventors confirmed the improvement of body mass index (BMI) and the improvement of leptin resistance, and the results are shown in Tables 3 and 4.

[2] = system: patients with type 2 diabetes mellitus; test: Change in concentration of HbA1c, 12-week clinical trial; conditions: for concentration of HbA1c, Average / concentration of HbA1c, Change Value, Average: capsule once a day; for concentration of HbA1c, Change Value, Average: From Week 0 to Week 12
Procedure: as §1, §2, §3
The present inventors observed the change in concentration of HbA1c during the 12-week dosing period. Since the blood glucose level measured at one time point can change due to various factors, the change in glycated hemoglobin (HbA1c) was checked for the purpose of determining the pattern of long-term glycemic control, and the results are shown in Table 1 and FIG. 1.

[3] = Change in body weight, 12-week clinical trial
Procedure: as §1, §2
(§4) In the above experiment, a capsule containing CHP (cyclo-hispro) with a different dose or a placebo corresponding thereto was used, and each subject received a two-week dose (18 capsules =14 +4) at one visit and was instructed to take 1 capsule before bedtime every day. In this case, the anti-diabetic drugs and other prescribed drugs currently being used were continuously taken. […]

[4] = system: patients with type 2 diabetes mellitus; test: Plasma leptin level (leptin resistance), 12-week clinical trial; conditions: Administration Group A: 3 mg of CHP+23 mg of zinc, capsule once a day; From Week 0 to Week 12
Procedure: as §1, §2, §4

[5] = Administration Group A: 3 mg of CHP+23 mg of zinc
[6] = Administration Group B: 9 mg of CHP+23 mg of zinc
[7] = Administration Group C: 15 mg of CHP+23 mg of zinc

O=C1NC(Cc2c[nH]cn2)C(=O)N2CCCC12 (centres unmarked) [CHP, cyclo(his-pro)]
body mass index (BMI), Change Value, Average [1, 5]: −0.27 kg/m^2
body mass index (BMI), Change Value, Average [1, 6]: 0.16 kg/m^2
body mass index (BMI), Change Value, Average [1, 7]: −0.28 kg/m^2
concentration of HbA1c, Average ([2]; Administration Group A: 3 mg of CHP+23 mg of zinc, Baseline (Week 0)): 8.25%
concentration of HbA1c, Change Value, Average [2, 5]: −0.21%
concentration of HbA1c, Average ([2]; Administration Group B: 9 mg of CHP+23 mg of zinc, Baseline (Week 0)): 8.06%
concentration of HbA1c, Change Value, Average [2, 6]: −0.17%
concentration of HbA1c, Average ([2]; Administration Group C: 15 mg of CHP+23 mg of zinc, Baseline (Week 0)): 8.49%
concentration of HbA1c, Change Value, Average [2, 7]: −0.43%
concentration of HbA1c, Average ([2]; Administration Group C: 15 mg of CHP+23 mg of zinc, Week 12): 8.08%
level of HbA1c over time (FIG. 1) ([2]; Administration Group C: 15 mg of CHP+23 mg of zinc, week 0 to week 12): reduced consistently until week 8, and then there was little change in the level of HbA1c between week 8 and week 12
body weight, Change Value, Average ([3]; Administration Group A: 3 mg of CHP+23 mg of zinc, capsule once a day, From Week 0 to Week 12): -0.73 kg
weight gain compared to the control ([3]; all patient groups receiving CHP (3, 9, 15 mg+23 mg of zinc), 12 weeks): less than the control, or the body weight was reduced
plasma leptin level, Change Value, Average [4]: 0.59
